Measured values: US5217960A, “Erythromycin derivatives” (priority 1991, dated 1993)
In brackets after ≈: the same amount, converted by molar mass.

Tests used:
Type in all cases: cell-based
[1] = test system: STAPHYLOCOCCUS AUREUS CMX 553; assay: In vitro antibacterial activity, agar dilution MIC; conditions: S. aureus CMX 553, BHI agar, 35-37° C., 20 to 24 hours, read-out: MIC
[2] = test system: PSEUDOMONAS AERUGINOSA BMH10; assay: In vitro antibacterial activity, agar dilution MIC; conditions: P. aeruginosa BMH10, BHI agar, 35-37° C., 20 to 24 hours, read-out: MIC
[3] = test system: STAPHYLOCOCCUS AUREUS NCTC 10649; assay: In vitro antibacterial activity, agar dilution MIC; conditions: NCTC10649, 24 h
[4] = test system: ACINETOBACTER CALCOACETICUS CMX 669; assay: In vitro antibacterial activity, agar dilution MIC; conditions: A. calcoaceticus CMX 669, BHI agar, 35-37° C., 20 to 24 hours
ESCHERICHIA COLI DC-2 = assay: In vitro antibacterial activity, agar dilution MIC; conditions: 24 h
[5] = test system: KLEBSIELLA PNEUMONIAE ATCC 8045; assay: In vitro antibacterial activity, agar dilution MIC; conditions: ATCC8045, 24 h
ESCHERICHIA COLI SS = assay: In vitro antibacterial activity, agar dilution MIC; conditions: 24 h
EN[…] ATCC 8043 = assay: In vitro antibacterial activity, agar dilution MIC; conditions: Enterococcus faecium, ATCC8043, 24 h
Protocol: (§1) Representative compounds of the present invention were assayed in vitro for antibacterial activity as follows: Twelve petri dishes containing successive aqueous dilutions of the test compound mixed with 10 ml of sterilized Brain Heart Infusion (BHI) agar (Difco 0418-01-5) were prepared. Each plate was inoculated with 1:100 (or 1:10 for slow-growing strains, such as Micrococcus and Streptococcus) dilutions of up to 32 different microorganisms, using a Steers replicator block. The inoculated plates were incubated at 35°-37° C. for 20 to 24 hours. In addition, a control plate, using BHI agar containing no test compound, was prepared and incubated at the beginning and end of each test.
(§2) An additional plate containing a compound having known susceptibility patterns for the organisms being tested and belonging to the same antibiotic class as the test compound was also prepared and incubated as a further control, as well as to provide test-to-test comparability. Erythromycin A was used for this purpose.
(§3) After incubation, each disk was read. The minimum inhibitory concentration (MIC) was defined as the lowest concentration of drug yielding no growth, a slight haze, or sparsely isolated colonies on the inoculum spot as compared to the growth control. The results of this assay, shown below in Tables 1 and 2, support the conclusion that the compounds of the invention are effective antibacterial agents.

[6] = test system: PSEUDOMONAS AERUGINOSA K799/61; assay: In vitro antibacterial activity, agar dilution MIC; conditions: 24 h
Protocol: as §1, §2, §3

M[…] ATCC 9341 = assay: In vitro antibacterial activity, agar dilution MIC; conditions: Micrococcus luteus, ATCC9341, 24 h
Protocol: as §1, §2, §3

M[…] ATCC 4698 = assay: In vitro antibacterial activity, agar dilution MIC; conditions: Micrococcus luteus, ATCC4698, 24 h
Protocol: as §1, §2, §3

STR[…] 508 = assay: In vitro antibacterial activity, agar dilution MIC; conditions: Streptococcus agalactiae, 24 h
Protocol: as §1, §2
(§4) After incubation, each disk was read. The minimum inhibitory concentration (MIC) was defined as the lowest concentration of drug yielding no growth, a slight haze, or sparsely isolated colonies on the inoculum spot as compared to the growth control.

STR[…] EES61 = assay: In vitro antibacterial activity, agar dilution MIC; conditions: Streptococcus pyogenes, 24 h
Protocol: as §1, §2, §4

[7] = test system: ENTEROBACTER AEROGENES ATCC 13048; assay: In vitro antibacterial activity, agar dilution MIC; conditions: Klebsiella aerogenes, ATCC13048, 24 h
ESCHERICHIA COLI JUHL = assay: microbe, parasite or virus in culture; conditions: E. coli JUHL, BHI agar, 35-37° C., 20 to 24 hours, read-out: MIC
[8] = test system: STAPHYLOCOCCUS AUREUS 1775; assay: In vitro antibacterial activity, agar dilution MIC; conditions: S. aureus 1775, BHI agar, 35-37° C., 20 to 24 hours, read-out: MIC
[9] = test system: STREPTOCOCCUS PYOGENES 930 CONST; assay: In vitro antibacterial activity, agar dilution MIC; conditions: S. pyogenes 930 CONST, BHI agar, 35-37° C., 20 to 24 hours, read-out: MIC
[10] = test system: STREPTOCOCCUS PYOGENES 2548 INDUC; assay: In vitro antibacterial activity, agar dilution MIC; conditions: 24 h
[11] = test system: PSEUDOMONAS AERUGINOSA K799/WT; assay: In vitro antibacterial activity, agar dilution MIC; conditions: P. aeruginosa K799/WT, BHI agar, 35-37° C., 20 to 24 hours
[12] = test system: STAPHYLOCOCCUS EPIDERMIDIS 3519; assay: microbe, parasite or virus in culture; conditions: S. epidermidis 3519, BHI agar, 35-37° C., 20 to 24 hours, read-out: MIC
[13] = test system: PSEUDOMONAS AERUGINOSA A5007; assay: In vitro antibacterial activity, agar dilution MIC; conditions: P. aeruginosa A5007, BHI agar, 35-37° C., 20 to 24 hours
[14] = test system: STAPHYLOCOCCUS AUREUS ATCC 6538P; assay: In vitro antibacterial activity, agar dilution MIC; conditions: ATCC6538P, 24 h
STAPHYLOCOCCUS AUREUS 45 = assay: In vitro antibacterial activity, agar dilution MIC; conditions: 24 h
[15] = test system: PROVIDENCIA STUARTII CMX 640; assay: microbe, parasite or virus in culture; conditions: P. stuartii CMX 640, BHI agar, 35-37° C., 20 to 24 hours
[16] = test system: STAPHYLOCOCCUS AUREUS A5177; assay: In vitro antibacterial activity, agar dilution MIC; conditions: 24 h
ESCHERICHIA COLI H560 = assay: In vitro antibacterial activity, agar dilution MIC; conditions: E. coli H560, BHI agar, 35-37° C., 20 to 24 hours, read-out: MIC
ESCHERICHIA COLI KNK 437 = assay: microbe, parasite or virus in culture; conditions: E. coli KNK 437, BHI agar, 35-37° C., 20 to 24 hours
PSEUDOMONAS CEPACIA 296I = assay: In vitro antibacterial activity, agar dilution MIC; conditions: Burkholderia cepacia; P. cepacia 296I; BHI agar, 35-37° C., 20 to 24 hours; read-out: MIC

SMILES: CC[C@H]1OC(=O)[C@H](C)[C@@H](O[C@H]2C[C@@](C)(OC)[C@@H](O)[C@H](C)O2)[C@H](C)[C@@H](O[C@@H]2O[C@H](C)C[C@H](N(C)C)[C@H]2O)[C@](C)(O)C[C@@H](C)[C@@H](N(C)C)[C@H](C)[C@@H](O)[C@@]1(O)CN(C)C [Compound 18, (9R)-9,21-di-(N,N-dimethylamino)-9-deoxoerythromycin A]
- MIC [1]: 3.1 µg/mL (≈ 3.85 µM)
- MIC [2]: 100 µg/mL (≈ 124 µM)
- MIC [3]: 1.56 µg/mL (≈ 1.94 µM)
- MIC [4]: 12.5 µg/mL (≈ 15.5 µM)
- MIC (ESCHERICHIA COLI DC-2): 6.2 µg/mL (≈ 7.69 µM)
- MIC [5]: 6.2 µg/mL (≈ 7.69 µM)
- MIC (ESCHERICHIA COLI SS): 0.2 µg/mL (≈ 0.248 µM)
- MIC (EN[…] ATCC 8043): 0.39 µg/mL (≈ 0.484 µM)
- MIC [6]: 1.56 µg/mL (≈ 1.94 µM)
- MIC (M[…] ATCC 9341): 0.2 µg/mL (≈ 0.248 µM)
- MIC (M[…] ATCC 4698): 0.78 µg/mL (≈ 0.968 µM)
- MIC (STR[…] 508): 0.2 µg/mL (≈ 0.248 µM)
- MIC (STR[…] EES61): 0.1 µg/mL (≈ 0.124 µM)
- MIC [7]: 25 µg/mL (≈ 31 µM)
- MIC (ESCHERICHIA COLI JUHL): 12.5 µg/mL (≈ 15.5 µM)
- MIC [8]: > 100 µg/mL
- MIC [9]: > 100 µg/mL
- MIC [10]: 25 µg/mL (≈ 31 µM)
- MIC [11]: > 100 µg/mL
- MIC [12]: 3.1 µg/mL (≈ 3.85 µM)
- MIC [13]: > 100 µg/mL
- MIC [14]: 1.56 µg/mL (≈ 1.94 µM)
- MIC (STAPHYLOCOCCUS AUREUS 45): 1.56 µg/mL (≈ 1.94 µM)
- MIC [15]: > 100 µg/mL
- MIC [16]: 25 µg/mL (≈ 31 µM)
- MIC (ESCHERICHIA COLI H560): 3.1 µg/mL (≈ 3.85 µM)
- MIC (ESCHERICHIA COLI KNK 437): 12.5 µg/mL (≈ 15.5 µM)
- MIC (PSEUDOMONAS CEPACIA 296I): > 100 µg/mL
